The numbers were not newly measured in publication PMC6602202, “Enteroendocrine peptides regulate feeding behavior via controlling intestinal contraction of the silkworm Bombyx mori” (PLoS ONE, 2019), which cites them from elsewhere.

Data set [1] deals with gut. To be noted: Periplaneta americana; cited from earlier work. An excerpt: (§1) AT-producing EEs (Fig 2C and 2D) and GSRYamide-producing EEs (Fig 2E and 2F) also have the potential to deliver secretory granules containing peptidyl factors to the hemocoel side through a cellular membrane. Those EEs have similar cellular morphology to EEs releasing other arthropod neuropeptide CCAP (Crustacean cardioactive peptide) observed in the American cockroac ...

For data set [2], the system named is foregut of Helicoverpa armigera. To be noted: cited from earlier work.
Text: as §1

For data set [3], the system named is foregut of Lacanobia oleracea. To be noted: cited from earlier work.
Text: as §1

Data set [4] relates to hindgut of Leucophaea maderae. To be noted: cited from earlier work.
Text: as §1

For data set [5], the system named is D. melanogaster. To be noted: cited from earlier work. From the text:
Peptides having C-terminal RYamide sequences constitute a neuropeptide Y (NPY) family, which is conserved both in vertebrates and invertebrate.

Data set [6] has as its system B. mori larvae. To be noted: cited from earlier work. An excerpt:
Among the feeding regulatory peptides in insects, several peptides are known as ‘brain-gut peptides’, which are expressed and produced in the brain and intestinal organs. […] These peptides may regulate not only the physiological functions related to digestion and intestinal lipid metabolisms but also the intestin ... || The myoinhibitory activities of AT and GSRYa-1 and -2 in the foregut (pharynx and esophagus) and hindgut (ileum) (Figs 5E, 5F and 6E) seem to be linked to the delay in feeding initiation in B. mori larvae (Figs 1D and 6B).

For data set [7], the system named is D. melanogaster. To be noted: cited from earlier work. An excerpt: The myoinhibitory activities of AT and GSRYa-1 and -2 in the foregut (pharynx and esophagus) and hindgut (ileum) (Figs 5E, 5F and 6E) seem to be linked to the delay in feeding initiation in B. mori larvae (Figs 1D and 6B).
This is another data set of the same source.

The subject of data set [8] is Schistocerca. gregaria. To be noted: cited from earlier work.

On to Crustacean cardioactive peptide [CCAP], for which the “effect on gut contraction” value in data set [1] is reported as “multiple roles, including gut contraction”.

For allatostatin [AST, reference compound], in data set [2], the “effect on spontaneous contraction of the foregut, H. armigera” value is “regulate spontaneous contraction of the foregut”. Besides, in data set [3], the “effect on spontaneous contraction of the foregut, L. oleracea” value is “regulate spontaneous contraction of the foregut”. In the case of myosuppressin (leukomyosuppressin), the “effect on spontaneous contraction of the foregut, L. oleracea” value in data set [3] is reported as “regulates spontaneous contraction of the foregut”. For the same substance, the “effect on spontaneous contraction of the hindgut, L. maderae” value in data set [4] was “regulates spontaneous contraction of the foregut of Lacanobia oleracea [66] and the hindgut of Leucophaea maderae”. On to neuropeptide F [NPF], for which the “effect on larval feeding behavior” value in data set [5] is listed as “regulate larval feeding behavior”. As to short neuropeptide F (sNPF) -2 [sNPF-2], the “effect on feeding initiation, peptides” value in data set [6] is on record as “feeding acceleratory effects that can shorten the latency to the initiation of feeding”. On to short neuropeptide F [sNPF], for which the “effect on feeding initiation, peptides” value in data set [6] was “feeding acceleratory effect”. The “effect on food intake and body weight” value in data set [7] is “stimulates food intake and body weight gain”. Further, the “effect on food intake” value in data set [8] is recorded as “an inhibitory effect on food intake”. Take “tachykinin-related peptides [B. mori TRPs]”: the “effect on feeding initiation, peptides” value in data set [6] is on record as “feeding acceleratory effects that can shorten the latency to the initiation of feeding”.
